Measurements published in article PMC11149339, “Necessity for higher teicoplanin doses in older adults: a multicenter prospective observational study in China” (BMC Geriatrics, 2024).
Where two headings read alike, the source gives them in different places.

Key:
[1] = in vivo, cited from earlier work
Source text: There are few studies on the optimal dose regimen and target concentration of teicoplanin in older adults.

[2] = Hepatotoxicity during teicoplanin treatment; format: in vivo, human
Source text: Patients with abnormal liver function at baseline were excluded. Hepatotoxicity was defined as an increase in the alanine aminotransferase or aspartate aminotransferase concentration to more than three times the upper limit of the institution’s normal reference ranges.

[3] = Therapeutic drug monitoring of teicoplanin trough concentration (Cmin) during treatment, LC-MS/MS; format: in vivo, human; settings: for patients with TDM 10–20 mg/L At 8-14d, N (%) / patients with TDM < 10 mg/L At 8-14d, N (%) / patients with TDM > 20 mg/L At 8-14d, N (%) / TDM At 8-14d (teicoplanin trough concentration): 8–14 days after first dose; for TDM At 8-14d (teicoplanin trough concentration) / TDM At 3d (teicoplanin trough concentration): median [IQR], LC-MS/MS; for patients with TDM 10–20 mg/L At 3d, N (%) / patients with TDM < 10 mg/L At 3d, N (%) / patients with TDM > 20 mg/L At 3d, N (%) / TDM At 3d (teicoplanin trough concentration): 3 days after first dose
Procedure: Teicoplanin (Targocid, Sanofi, Dublin, Ireland) was administered intravenously for 30 min. The prescribed dose regimens were at the discretion of treating physicians, and the recommended regimens were not always followed.
Blood samples (5 mL) were collected from the elbow into ethylenediaminetetraacetic acid-containing Vacutainers® (Becton Dickinson, Milan, Italy) in the morning before teicoplanin administration and after drug withdrawal. Samples were promptly refrigerated and centrifuged at 2500 × g for 10 min before 2 mL of supernatant was preserved at -20 °C for subsequent analysis. Teicoplanin concentrations were determined using liquid chromatography-tandem mass spectrometry. The linear range of the method was 1.0–100.0 mg/L, and the lower limit of quantification was 1.0 mg/L. The relative standard deviation of intra- and inter-batch precision was ≤ 10%.
Teicoplanin concentrations were dynamically monitored. Concentrations at 3, ≤ 7, 8–14, and ≥ 15 days after the first dose and within 2 h of the next scheduled dose were recorded as TDM3d, TDM≤7d, TDM8-14d, and TDM≥15d, respectively. Concentrations at 3, ≤ 7, 8–14, and ≥ 15 days after the last teicoplanin dose (withdrawal) were recorded as TDMw3d, TDMw≤7d, TDMw8-14d, and TDMw≥15d. respectively (Fig. 1a). The Cmin target was ≥ 10 mg/L [6, 7, 23]; a concentration < 10 mg/L was considered suboptimal. Average TDM (TDMa) was defined as the mean Cmin after 3 days of treatment.

[4] = LR-A + MR-A (200 mg once daily, then 200 mg once daily)
[5] = LR-B + MR-A (400 mg once daily, then 200 mg once daily)
[6] = LR-B + MR-B (400 mg once daily, then 400 mg once daily)
[7] = LR-C + MR-B (400 mg at 12-h intervals, then 400 mg once daily)
[8] = LR-C + MR-C (400 mg at 12-h intervals, then 400 mg twice daily)

Teicoplanin
average elimination half-life ([1]; human): 107 h
half-life of teicoplanin ([1]; human): 71 to 80 h
half-life of teicoplanin [1]: 71 to 163 h
incidence of hepatotoxicity ([2]; TDMa < 10 mg/L (2/65)): 3.1%
incidence of hepatotoxicity ([2]; TDMa = 10–20 mg/L (3/57)): 5.3%
incidence of hepatotoxicity ([2]; TDMa = 20–40 mg/L (1/26)): 3.8%
incidence of hepatotoxicity ([2]; all evaluable patients (6/148), ALT or AST more than three times the upper limit of normal): 4.1%
patients with TDM 10–20 mg/L At 8-14d, N (%) ([3]; LR-A + MR-A): 20(41.7)
patients with TDM < 10 mg/L At 8-14d, N (%) ([3]; LR-A + MR-A): 22(45.8)
patients with TDM > 20 mg/L At 8-14d, N (%) ([3]; LR-A + MR-A): 6(12.5)
TDM At 8-14d (teicoplanin trough concentration) [3, 4]: 10.4[7.3,17.8] mg/L
patients with TDM 10–20 mg/L At 8-14d, N (%) ([3]; LR-B + MR-A): 25(53.2)
patients with TDM < 10 mg/L At 8-14d, N (%) ([3]; LR-B + MR-A): 16(34.0)
patients with TDM > 20 mg/L At 8-14d, N (%) ([3]; LR-B + MR-A): 6(12.8)
TDM At 8-14d (teicoplanin trough concentration) [3, 5]: 11.0[7.3,15.4] mg/L
patients with TDM 10–20 mg/L At 8-14d, N (%) ([3]; LR-B + MR-B): 2(50.0)
patients with TDM < 10 mg/L At 8-14d, N (%) ([3]; LR-B + MR-B): 1(25.0)
patients with TDM > 20 mg/L At 8-14d, N (%) ([3]; LR-B + MR-B): 1(25.0)
TDM At 8-14d (teicoplanin trough concentration) [3, 6]: 12.8[9.0,21.5] mg/L
patients with TDM 10–20 mg/L At 8-14d, N (%) ([3]; LR-C + MR-B): 8(57.2)
patients with TDM < 10 mg/L At 8-14d, N (%) ([3]; LR-C + MR-B): 5(35.7)
patients with TDM > 20 mg/L At 8-14d, N (%) ([3]; LR-C + MR-B): 1(7.1)
TDM At 8-14d (teicoplanin trough concentration) [3, 7]: 14.16[8.9,16.4] mg/L
patients with TDM 10–20 mg/L At 8-14d, N (%) ([3]; LR-C + MR-C): 3(37.5)
patients with TDM < 10 mg/L At 8-14d, N (%) ([3]; LR-C + MR-C): 0
patients with TDM > 20 mg/L At 8-14d, N (%) ([3]; LR-C + MR-C): 5(62.5)
TDM At 8-14d (teicoplanin trough concentration) [3, 8]: 21.2[16.8,27.4] mg/L
TDM At 8-14d (teicoplanin trough concentration) ([3]; all patients (N = 204), iv): 11.1[8.5,17.6] mg/L
patients with TDM 10–20 mg/L At 3d, N (%) ([3]; LR-A + MR-A): 0
patients with TDM < 10 mg/L At 3d, N (%) ([3]; LR-A + MR-A): 16(100)
patients with TDM > 20 mg/L At 3d, N (%) ([3]; LR-A + MR-A): 0
TDM At 3d (teicoplanin trough concentration) [3, 4]: 5.4[3.0,7.7] mg/L
patients with TDM 10–20 mg/L At 3d, N (%) ([3]; LR-B + MR-A): 2(10.5)
patients with TDM < 10 mg/L At 3d, N (%) ([3]; LR-B + MR-A): 17(89.5)
patients with TDM > 20 mg/L At 3d, N (%) ([3]; LR-B + MR-A): 0
TDM At 3d (teicoplanin trough concentration) [3, 5]: 6.3[4.4,7.9] mg/L
patients with TDM 10–20 mg/L At 3d, N (%) ([3]; LR-B + MR-B): 1(16.7)
patients with TDM < 10 mg/L At 3d, N (%) ([3]; LR-B + MR-B): 3(50.0)
patients with TDM > 20 mg/L At 3d, N (%) ([3]; LR-B + MR-B): 2(33.3)
TDM At 3d (teicoplanin trough concentration) [3, 6]: 11.1[8.1,22.2] mg/L
patients with TDM 10–20 mg/L At 3d, N (%) ([3]; LR-C + MR-B): 5(62.5)
patients with TDM < 10 mg/L At 3d, N (%) ([3]; LR-C + MR-B): 3(37.5)
patients with TDM > 20 mg/L At 3d, N (%) ([3]; LR-C + MR-B): 0
TDM At 3d (teicoplanin trough concentration) [3, 7]: 11.0[7.0,13.3] mg/L
patients with TDM 10–20 mg/L At 3d, N (%) ([3]; LR-C + MR-C): 7(50.0)
patients with TDM < 10 mg/L At 3d, N (%) ([3]; LR-C + MR-C): 3(21.4)
patients with TDM > 20 mg/L At 3d, N (%) ([3]; LR-C + MR-C): 4(28.6)
TDM At 3d (teicoplanin trough concentration) [3, 8]: 14.4[10.7,21.1] mg/L
TDM At 3d (teicoplanin trough concentration) ([3]; all patients (N = 204), iv): 7.7[5.6,12.4] mg/L
target concentration achievement rate (≥ 10 mg/L) ([3]; TDM8-14d, LR-A + MR-A regimen): 54.2%
target concentration achievement rate (≥ 10 mg/L) ([3]; TDM8-14d, LR-B + MR-A regimen): 66.0%
target concentration achievement rate (≥ 10 mg/L) ([3]; TDM8-14d, LR-B + MR-B regimen): 75.0%
target concentration achievement rate (≥ 10 mg/L) ([3]; TDM8-14d, LR-C + MR-C regimen): 100%
target concentration achievement rate (≥ 10 mg/L) ([3]; TDM3d, LR-A + MR-A regimen): 0%
